As a reminder, the LD50 is the dose expected to kill half of the subjects tested.

Where two headings read alike, the source gives them in different places. Some results are limits rather than exact numbers.

For series [1] the following is noted: background statement, relative to Irgacure 369 where stated; cited from earlier work.
The conditions of series [2]: in UV inks; background statement; cited from earlier work.
The conditions of series [3]: background statement; cited from earlier work.
Series [4] is described as follows: Photo speed performance test. The following applies: 6 parts by weight photoinitiator + 2 parts Chivacure DETX in 100 parts black flexo formulation; wet film 25.15 μm; Fusion F300 D-bulb 300 W/inch. The source says:
The black flexo formulation containing Oligomer 6325-100, EM2411 and carbon black (viscosity: 1750 cP) was mixed with a photoinitiator to carry out the photo speed performance test. […] The resultant mixture was coated on a printable pearlescent film (wet film thickness: 25.15 μm); and the coated printable pearlescent film was exposed to an UV light (Fusion F300, D-bulb, 300 W/inch) for curing.

A short description of series [5]: Acute oral toxicity test (LD50), OECD Test Guidelines 423. It is filed as in vivo. The following applies: for LD50: acute oral, OECD 423; for Acute oral toxicity assessment: judged from LD50 exceeding 5000 mg/kg.
Series [6] is described as follows: Photoinitiator dosage test (curing performance). Further details: key to Curing performance, 1 time of UV light treatment / Curing performance, 2 times of UV light treatment / Curing performance, 3 times of UV light treatment / Curing performance, 4 times of UV light treatment: X: Not tack-free; Δ: Tack-free but not through-cure; ◯: Tack-free and through-cure. The following applies: for Curing performance, 1 time of UV light treatment / Curing performance, 2 times of UV light treatment / Curing performance, 3 times of UV light treatment / Curing performance, 4 times of UV light treatment: 365 nm, 4 W/inch. As to the method:
The commercially available black flexo ink without a photoinitiator was mixed with a photoinitiator to carry out the photo speed performance test, and the effect of the amount of photo initiating compound Ia on the photo speed performance was evaluated. […] The resultant mixture was coated on a PET film with primer (means for improving adhesion) (dry film thickness: 5 μm). The coated PET film was exposed to an UV light (wavelength: 365 nm; 4 W/inch) for curing.

Series [7] can be described thus: Viscosity variation test, 0° C. atmosphere for 7 days. The series is classed as physicochemical. The following applies: for Viscosity, Mixture I, 7 days / Viscosity, Mixture I, Initial: 4 parts by weight photoinitiator in Mixture I; for Viscosity, Mixture I, 7 days / Viscosity, Mixture II, 7 days / Viscosity, Mixture III, 7 days: after 7 days in 0° C. atmosphere; for Viscosity, Mixture I, Initial / Viscosity, Mixture II, Initial / Viscosity, Mixture III, Initial: before exposure; for Viscosity, Mixture II, 7 days / Viscosity, Mixture II, Initial: 4 parts by weight photoinitiator in Mixture II; for Viscosity, Mixture III, 7 days / Viscosity, Mixture III, Initial: 4 parts by weight photoinitiator in Mixture III.

Series [8] is described as follows: Solubility test: dissolution in acrylate mixtures I to III. The following applies: one-hour ultrasonication at room temperature. It is filed as physicochemical. As for the experimental part:
Mixtures I to III were prepared according to the composition provided below, and then 6 parts by weight of photoinitiator Trgacure® 369 (available from IGM), photoinitiator R-gen® 919 (available from Chitec Technology Co., Ltd.) or photo initiating compound Ia was added to each of the mixtures I to III.

The conditions of series [9]: background statement; cited from earlier work. The source holds these as a separate data set.
[10] abbreviates: 4 parts by weight photoinitiator.
Setting [11] is: 8 parts by weight photoinitiator.

Turning to `CCCCCCNc1ccc(C(=O)C(CC)(Cc2ccccc2)N(C)C)cc1` (stereo not drawn) [compound I], in series [1], the Photo speed result is “comparable to that of Irgacure® 369”.
For `CN(C)C(C)(C(=O)c1ccccc1)c1ccccc1` (stereo not drawn) [compound 96], in series [1], the Photo speed result is on record as “poor photospeeds”.
Take `CCC(Cc1ccccc1)(C(=O)c1ccc(N2CCOCC2)cc1)N(C)C` (stereo not drawn) [Irgacure® 369]: the “Dosage above which prone to precipitate” value in series [2] is reported as “over 4 wt %”. Also, the Reproductive toxicity result in [3] is listed as “reproductive toxicity”. Moreover, the Photo speed in series [4] is 120 m/minute. Also, in series [5], the LD50 is greater than 5000 mg/kg and the “Acute oral toxicity assessment” value is “no acute oral toxicity”. Also, the LD50 in [5] (in vivo, read-out: LD50) is greater than 5000 mg/kg. Moreover, in series [6] (setting [10]), the “Curing performance, 1 time of UV light treatment” value (shortened to “Curing performance, 1 time”) was “X”; the “Curing performance, 2 times of UV light treatment” value was “X”; the “Curing performance, 3 times of UV light treatment” value is given as “X”; the “Curing performance, 4 times of UV light treatment” value is reported as “Δ”. Besides, the “Dissolution in black flexo ink” value in series [6] (setting [11]) was “Incomplete dissolution”. Moreover, in [7], the “Viscosity, Mixture I, 7 days” value amounted to 60.4 cP; the “Viscosity, Mixture I, Initial” value stood at 52.7 cP; the “Viscosity, Mixture II, 7 days” value is reported as “Precipitate”; the “Viscosity, Mixture II, Initial” value came to 385.0 cP. In series [7], the “Viscosity, Mixture III, 7 days” value is reported as “Precipitate” and the “Viscosity, Mixture III, Initial” value came to 487.0 cP.
As to `C=CCC(C(=O)c1ccccc1)(c1ccccc1)N(C)C` (stereo not drawn) [compound 100], the Photo speed result in series [1] is listed as “poor photospeeds”.
For the molecule `CCC1(C)OCCN1c1ccc(C(=O)C(CC)(Cc2ccccc2)N(C)C)cc1` (stereo not drawn) [Photo initiating compound Ia], in series [4], the Photo speed was determined as 120 m/minute. In [5], the LD50 is listed as greater than 5000 mg/kg and the “Acute oral toxicity assessment” value is reported as “no acute oral toxicity”. Moreover, the LD50 in series [5] (in vivo, read-out: LD50) is greater than 5000 mg/kg. Besides, the “Dissolution, Mixture I” value in [8] (6 parts by weight photoinitiator in Mixture I) is “Completely”. Moreover, the “Dissolution, Mixture II” value in series [8] (6 parts by weight photoinitiator in Mixture II) is recorded as “Completely”. Further, in [8] (6 parts by weight photoinitiator in Mixture III), the “Dissolution, Mixture III” value is given as “Completely”. In [6] (setting [10]), the “Curing performance, 1 time” value is given as “X”; the “Curing performance, 2 times of UV light treatment” value is listed as “X”; the “Curing performance, 3 times of UV light treatment” value is “X”; the “Curing performance, 4 times of UV light treatment” value is reported as “Δ”. For the same molecule, the “Curing performance, 1 time” value in series [6] (setting [11]) was “Δ”. Besides, the “Solubility in black flexo ink” value in series [6] (amount increased up to 12 parts by weight) was “no solubility issue was observed”. Moreover, the “Precipitate after exposure to 0° C. atmosphere for 7 days” value in [7] (4 parts by weight in mixtures I to III) is listed as “no precipitate was observed”. Besides, in [7], the “Viscosity, Mixture I, 7 days” value is listed as 51.2 cP; the “Viscosity, Mixture I, Initial” value is listed as 41.6 cP; the “Viscosity, Mixture II, 7 days” value was determined as 406.7 cP; the “Viscosity, Mixture II, Initial” value is on record as 351.3 cP. Besides, in series [7], the “Viscosity, Mixture III, 7 days” value is given as 547.8 cP and the “Viscosity, Mixture III, Initial” value came out at 433.1 cP.
For `CCC(Cc1ccc(C)cc1)(C(=O)c1ccc(N2CCOCC2)cc1)N(C)C` (stereo not drawn) [Irgacure® 379], the Reproductive toxicity entry in series [3] was “reproductive toxicity”.
In the case of `C=CCC(C)(C(=O)c1ccccc1)N(C)C` (stereo not drawn) [compound 95], the Photo speed result in series [1] was “poor photospeeds”.
For the molecule `C=CCC(C)(C(=O)c1ccccc1)N1CCOCC1` (stereo not drawn) [compound 93], in series [1], the Photo speed entry is “poor photospeeds”.
For the molecule `CCC(Cc1ccccc1)(C(=O)c1ccc(N(C)CCOC(C)=O)cc1)N(C)C` (stereo not drawn) [compound IIa], the Acute oral toxicity entry in series [9] was “high acute oral toxicity”. Besides, in series [1], the Photo speed entry was “comparable to Irgacure® 369”.

(Values after patent US10385145B1, “Liquid photo initiating compound and uses of the same” (CHITEC TECHNOLOGY CO., LTD., priority 2018, dated 2019).)
